Values quoted from earlier work, collected in patent publication US20090238867A1, “Nanoparticulate Anidulafungin Compositions and Methods for Making the Same” (priority 2007, published 2009).
Like-named read-outs stand apart in the source and are kept apart here. Numbered stars: 1 amine (or outer) side, 2 acyl side, 3 side chain; on linkers, the order of the positions; unused ones are H or OH. Bridge positions count the residues as written; N and C are the ends. Square brackets hold non-standard residues; d marks the D form. Peptide text beside a SMILES is read from it. * marks the point of attachment. ξ: configuration not given here. pTerphenylCO(4''-OnC5H11) = CCCCCOc1ccc(-c2ccc(-c3ccc(C(=O)*)cc3)cc2)cc1; Orn(4R-OH,5R-OH) = O=C([C@H](C[C@@H](O)[C@@H](O)N[*:3])N[*:1])[*:2]; hTyr(3S-OH,4S-OH) = N[C@H](C(=O)O)[C@H](O)[C@@H](O)c1ccc(O)cc1; Pro(3S-OH,4S-Me) = C[C@H]1CN[C@H](C(=O)O)[C@H]1O; Hyp = O=C(O)[C@@H]1C[C@@H](O)CN1; ξThr(3R) = C[C@@H](O)C(N)C(=O)O

Legend:
[1] = system: Candida albicans; conditions: parenteral; immunocompetent and immunosuppressed mice, disseminated infection
[2] = system: C. tropicalis
[3] = IV
[4] = system: glucan synthase; conditions: enzyme present in fungal, not mammalian cells
[5] = system: Candida
[6] = system: cytochrome P450 (CYP450) isoenzymes
[7] = system: C. glabrata
[8] = system: human plasma proteins
[9] = system: Candida albicans; conditions: parenteral; immunocompetent and immunosuppressed rabbits, disseminated infection
[10] = system: C. parapsilosis
[11] = system: fluconazole-resistant C. albicans; conditions: immunosuppressed rabbits
[12] = system: Candida albicans

CCCCCOc1ccc(-c2ccc(-c3ccc(C(=O)N[C@H]4C[C@@H](O)[C@@H](O)NC(=O)[C@@H]5[C@@H](O)[C@@H](C)CN5C(=O)[C@H]([C@@H](C)O)NC(=O)[C@H]([C@H](O)[C@@H](O)c5ccc(O)cc5)NC(=O)[C@@H]5C[C@@H](O)CN5C(=O)C([C@@H](C)O)NC4=O)cc3)cc2)cc1 (stereo partly drawn) [anidulafungin, 1-[(4R,5R)-4,5-Dihydroxy-N^2-[[4″-(pentyloxy)[1,1′:4′,1″-terphenyl]-4-yl]carbonyl]-L-ornithine]echinocandin B] ({pTerphenylCO(4''-OnC5H11)}-[Orn(4R-OH,5R-OH)][ξThr(3R)][Hyp][hTyr(3S-OH,4S-OH)]T[Pro(3S-OH,4S-Me)]; lactam 1-C)
efficacy as prolonged survival and reduction in mycological burden [1]: effective
in vitro activity [2]: active
clearance [3]: about 1 L/h
distribution half-life [3]: 0.5 to 1 h
intersubject variability of systemic exposure (coefficient of variation) [3]: < 25%
systemic exposures, dose dependence [3]: dose proportional
terminal elimination half-life [3]: 40 to 50 h
volume of distribution [3]: 30 to 50 L
estimated plasma accumulation factor at steady state ([3]; after loading dose twice the daily maintenance dose): approximately 2
inhibition of glucan synthase [4]: inhibits
clinical effectiveness ([5]; patients with candidemia and/or other forms of invasive candidiasis): effectiveness
clinical effectiveness ([5]; patients with esophageal candidiasis): effectiveness
substrate, inducer or inhibitor of CYP450 isoenzymes [6]: not a clinically relevant substrate, inducer, or inhibitor
in vitro activity [7]: active
solubility in ethanol (ethanol): slightly soluble
solubility in water (water): practically insoluble
bound to human plasma proteins [8]: > 99%
efficacy as prolonged survival and reduction in mycological burden [9]: effective
in vitro activity [10]: active
mycological burden [11]: reduces the mycological burden
in vitro activity [12]: active
